US20250154110A1, “CLAUDIN INHIBITORS AND METHODS OF USE THEREOF” (The University of Chicago, priority 2021, published 2025)

Assays:
[1] = biological target: T1, claudin-15 (Homo sapiens, UniProt P56746); assay: TER across MDCK I monolayers induced to express claudin-15; format: cell-based; details: FIG. 20; concentrations lower than 100 μM; resistance normalized to vehicle
T1 construct: expressed in transfected cells; host or cells: Madin-Darby Canine Kidney (MDCK) I cells, doxycycline-induced expression
T1 sequence (P56746 1-228): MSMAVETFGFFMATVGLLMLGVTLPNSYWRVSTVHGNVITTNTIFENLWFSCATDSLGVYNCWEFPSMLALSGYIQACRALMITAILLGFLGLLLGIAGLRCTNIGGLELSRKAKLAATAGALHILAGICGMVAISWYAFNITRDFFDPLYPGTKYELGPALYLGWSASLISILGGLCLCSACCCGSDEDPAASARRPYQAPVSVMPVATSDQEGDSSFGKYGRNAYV
From the text: Electrical measures are used to assess the flow of ions through the claudin channels. The most commonly used measurement in the tight junction field is transepithelial electrical resistance (TER). These assays can be performed using epithelial cells grown on permeable supports (in vitro) or using intact tissue from the GI tract mounted across apertures (ex vivo).
Two different Madin-Darby Canine Kidney (MDCK) I cell lines were used, which respectively express either claudin-2 or -15 when grown in the presence of doxycycline. These cells are useful in assessing the specificity of molecule effects on claudin-2 versus claudin-15. Caco-2 BBe epithelial cells, which normally express claudin-2 and some claudin-15, were also used to better understand the utility of these molecules in blocking claudins in the gastrointestinal (GI) tract. Caco-2 BBe and MDCK cells were grown on 0.33 cm^2 polycarbonate semi-permeable membranes with 0.4 μm pores (Corning Life Sciences, Corning, NY) and used 4 days (MDCK) or 3 weeks (Caco-2 BBe) after plating. […]
Molecules were solubilized in vehicle (dimethylsulfoxide (DMSO)) and applied to both sides of the epithelial monolayer after first measuring TER at t=0 (FIGS. 17 and 18). […] Readings were performed for at least 3 hours after application to rule out epithelial cell injury, which would reduce TER. […]

[2] = system: mouse mucosa; assay: TER of mouse duodenum mucosa mounted in Ussing chambers; details: FIG. 22, 100 μM added bilaterally, versus vehicle, P<0.01
From the text: The same techniques to measure TER and ion selectivity also apply to intact mucosa isolated from mice. The only significant difference is the tissue was first stripped of its muscularis propria and mounted in chambers, known as Ussing chambers. The same techniques were used to measure ion selectivity. Identical solutions were used, but also bubbled with 100% oxygen.
For TER measurements, duodenum segments were stripped of muscularis propria and mounted in Ussing chambers, and equilibrated in oxygenated HBSS for 15 min at 37° C. Vehicle control solution (DMSO) or the same solution containing 100 μM NSC 67736 were then added bilaterally. TER was recorded using current clamp pulses from 0 to 10 μA and Vrev was recorded by clamping current to 0. Electrode bridges were made 3% agarose KCl.

[3] = system: colonoids derived from a patient with inflammatory bowel disease; assay: Organoid shrinking assay in colonoids after Na+ to NMDG+ buffer exchange; format: cell-based, human; details: FIG. 25
From the text: For this study, organoids derived from human colon biopsies (colonoids) were first equilibrated in steady-state with Na^+ as the predominant extracellular cation. Extraluminal Na^+ was then replaced with N-methyl-D-glucamine (NMDG^+) by buffer exchange. The buffer exchange generates a large concentration gradient for Na^+ to diffuse out of the organoid lumen. […] See, for example, FIG. 24. As a result, the net Na^+ flux across tight junctions creates an osmotic gradient for water to exit the organoid through tight junctions, causing organoids to shrink. The size of organoids is measured by time-lapse microscopy, and the rate and extent of shrinkage can be determined as an assay of claudin permeability. Reduced rate and extent of shrinkage indicates reduced permeability.
Colonoids derived from a patient with inflammatory bowel disease were first equilibrated in steady-state with Na^+ containing media. Equilibrated colonoids were treated with NSC 73446 or a vehicle control and the extraluminal Na^+ was then replaced with N-methyl-D-glucamine (NMDG^+) by buffer exchange. As is apparent from the results set forth in FIG. 25, water transport across human epithelium was modulated by NSC 73446.

## O=C(Nc1cccc(C(=O)Nc2cc(C3=NCCN3)cc(C3=NCCN3)c2)c1)Nc1cccc(C(=O)Nc2cc(C3=NCCN3)cc(C3=NCCN3)c2)c1 [NSC 53299]
[1]
  dose response of TER: effective at low micromolar concentrations

## Cl.Cl.O=C(Nc1ccc(C(=O)Nc2ccc(C3=NCCCN3)cc2)cc1)Nc1ccc(C2=NCCCN2)cc1 [NSC 67736]
[2]
  change in TER (barrier function) in mouse mucosa: increases barrier function

## CCCNC(=O)c1cc(NC(=O)Nc2ccc(C3=NCCCN3)cc2)cc(NC(=O)Nc2ccc(C3=NCCCN3)cc2)c1.Cl [NSC 73446]
[3]; inferred from colonoid size change
  water transport across human epithelium: reduces water transport out of the lumen of the colonoid
[3]; time-lapse microscopy, relative to vehicle control
  colonoid size change (rate and extent of shrinkage): minimizes the rate and extent of colonoid size decrease
